Results published in US7514254B2, “Plant-derived alkaline alpha-galactosidase” (The State of Israel, Ministry of Agriculture & Rural …, priority 1998, dated 2009).
One block for each molecule: values may come before it.

How the values were obtained:
[1] = biological target: T1, melon (Cucumis melo) fruit alkaline alpha-galactosidase Form II (Cucumis melo, UniProt Q84NI6); assay: Substrate kinetics (Lineweaver-Burk) of alkaline alpha-galactosidase Form II; assay type: biochemical, muskmelon (Cucumis melo L. cv C-8)
T1 construct: native 102 kDa, denatured 92 kDa; assayed at pH 7.5
T1 sequence (Q84NI6 1-772): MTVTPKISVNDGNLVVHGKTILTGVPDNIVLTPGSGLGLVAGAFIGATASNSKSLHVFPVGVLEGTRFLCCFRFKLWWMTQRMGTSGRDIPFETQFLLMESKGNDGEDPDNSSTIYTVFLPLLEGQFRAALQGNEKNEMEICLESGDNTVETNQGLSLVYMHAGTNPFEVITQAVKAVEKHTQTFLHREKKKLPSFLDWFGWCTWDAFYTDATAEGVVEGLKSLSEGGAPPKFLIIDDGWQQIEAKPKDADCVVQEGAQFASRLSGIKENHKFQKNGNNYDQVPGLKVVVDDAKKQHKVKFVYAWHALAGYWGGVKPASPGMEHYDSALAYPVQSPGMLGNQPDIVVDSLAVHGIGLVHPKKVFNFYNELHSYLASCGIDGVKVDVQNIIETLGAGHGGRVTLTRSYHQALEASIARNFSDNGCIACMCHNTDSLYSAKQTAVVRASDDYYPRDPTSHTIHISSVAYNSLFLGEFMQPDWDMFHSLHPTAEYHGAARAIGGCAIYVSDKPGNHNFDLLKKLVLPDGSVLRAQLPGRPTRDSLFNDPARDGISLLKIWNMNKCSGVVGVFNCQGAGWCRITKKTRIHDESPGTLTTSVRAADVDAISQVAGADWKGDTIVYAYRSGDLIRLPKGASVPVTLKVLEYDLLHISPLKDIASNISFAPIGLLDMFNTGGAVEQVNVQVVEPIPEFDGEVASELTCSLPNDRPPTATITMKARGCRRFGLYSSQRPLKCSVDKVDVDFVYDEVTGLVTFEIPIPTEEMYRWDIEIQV
Protocol: (§1) For routine analysis and monitoring the activity in the purification steps, alpha-galactosidase was assayed as described by Smart and Pharr (“Characterization of alpha-galactosidase from cucumber leaves”, Plant Physiology, 66:731-734, 1980), using p-nitrophenyl alpha-galactoside (pNPG) as substrate. Reaction was initiated by adding 50 μl enzyme aliquot to either 200 μl 100 mM pH 5.5 McIlvaine buffer or 100 mM pH 7.5 HEPES buffer, containing 5 mM pNPG at 35 C. The reaction was terminated after 10 min by adding 1 ml of 5% (w/v) Na2CO3 and activity expressed as nmol nitrophenol per min as measured at 410 nm. […] The assay was started by adding 50 μl enzyme preparation at 35 C and terminated after 10 to 20 min by 2 min boiling.
(§2) The fractions from the DEAE-Sepharose chromatography which were active at pH 7.5 were pooled and dialyzed against buffer A for 12 h prior to loading onto an HPLC ion exchange chromatography column (Mono-Q HR 5/5, Pharmacia, Uppsala, Sweden), previously equilibrated with buffer A. Bound proteins were eluted with a linear gradient of 0.1 to 0.45 M NaCl and the active fractions were detected using pNPG as substrate at pH 7.5 as described above. […] For the further purification of Form II the active fractions of the peak II were chromatographed on hydrophobic interaction chromatography. The fractions were pooled, brought to 1 M (NH4)2SO4 and loaded on to a hydrophobic interaction column (phenyl-Sepharose CL-4B, 0.5×12 cm, Pharmacia, Uppsala, Sweden) previously equilibrated with buffer A containing 1 M (NH4)2SO4. The protein was eluted with a reverse stepwise gradient from 1 to 0 M (NH4)2SO4 with 50 mM intervals in buffer A. Fractions containing the activity peak were collected and dialyzed for 12 h against buffer A and the dialysate was concentrated by reverse dialysis against solid sucrose. The enzyme, partially purified by hydrophobic interaction chromatography, was used for the characterization of Form II. The active fractions from the hydrophobic interaction column were further purified. Active fractions were separated electrophoretically using a Mini Prep Cell (Bio-Rad Laboratories, Hercules, Calif.) for discontinuous native-PAGE with 7% polyacrylamide, according to manufacturer's instructions. Fractions (0.25 ml/fraction) were assayed at pH 7.5 with pNPG as substrate for the activity. The active fractions were pooled, concentrated by Vivaspin Concentrator (Vivascience LTD, Lincoln, England), and run in a 8% SDS-PAGE. Proteins in the SDS-PAGE were identified using Coomassie Blue staining.

[2] = system: Escherichia coli K12 alpha-galactosidase; settings: Schmid and Schmitt 1976; cited from earlier work
[3] = biological target: T1, melon (Cucumis melo) fruit alkaline alpha-galactosidase Form II; assay: Inhibition of alkaline alpha-galactosidase Form II by alternative substrate (galactose release); assay type: biochemical, muskmelon (Cucumis melo L. cv C-8); settings: read-out: inhibition by excess raffinose (galactose release)
Protocol: as §1

[4] = system: melon (Cucumis melo) fruit acid form alpha-galactosidase; assay: Substrate kinetics (Lineweaver-Burk) of acid alpha-galactosidase; assay type: biochemical, muskmelon (Cucumis melo L. cv C-8)
Protocol: (§3) For routine analysis and monitoring the activity in the purification steps, alpha-galactosidase was assayed as described by Smart and Pharr (“Characterization of alpha-galactosidase from cucumber leaves”, Plant Physiology, 66:731-734, 1980), using p-nitrophenyl alpha-galactoside (pNPG) as substrate. […] The reaction was terminated after 10 min by adding 1 ml of 5% (w/v) Na2CO3 and activity expressed as nmol nitrophenol per min as measured at 410 nm. […] The assay was started by adding 50 μl enzyme preparation at 35 C and terminated after 10 to 20 min by 2 min boiling. […] For the partial purification of the acid form of alpha-galactosidase the fractions active at pH 5.5 were pooled and concentrated by reverse dialysis against solid sucrose. […] The active fractions were then desalted by dialysis against buffer A for 12 hours with two changes of the buffer. This enzyme fraction was used for the characterization of the acidic form of alpha-galactosidase. […] The substrate specificity of the alpha-galactosidases was tested with pNPG, stachyose, raffinose, melibiose or guar gum (Sigma).

[5] = biological target: T2, melon (Cucumis melo) fruit alkaline alpha-galactosidase Form I (Cucumis melo, UniProt Q84NI7); assay: Substrate kinetics (Lineweaver-Burk) of alkaline alpha-galactosidase Form I
T2 sequence (Q84NI7 1-754): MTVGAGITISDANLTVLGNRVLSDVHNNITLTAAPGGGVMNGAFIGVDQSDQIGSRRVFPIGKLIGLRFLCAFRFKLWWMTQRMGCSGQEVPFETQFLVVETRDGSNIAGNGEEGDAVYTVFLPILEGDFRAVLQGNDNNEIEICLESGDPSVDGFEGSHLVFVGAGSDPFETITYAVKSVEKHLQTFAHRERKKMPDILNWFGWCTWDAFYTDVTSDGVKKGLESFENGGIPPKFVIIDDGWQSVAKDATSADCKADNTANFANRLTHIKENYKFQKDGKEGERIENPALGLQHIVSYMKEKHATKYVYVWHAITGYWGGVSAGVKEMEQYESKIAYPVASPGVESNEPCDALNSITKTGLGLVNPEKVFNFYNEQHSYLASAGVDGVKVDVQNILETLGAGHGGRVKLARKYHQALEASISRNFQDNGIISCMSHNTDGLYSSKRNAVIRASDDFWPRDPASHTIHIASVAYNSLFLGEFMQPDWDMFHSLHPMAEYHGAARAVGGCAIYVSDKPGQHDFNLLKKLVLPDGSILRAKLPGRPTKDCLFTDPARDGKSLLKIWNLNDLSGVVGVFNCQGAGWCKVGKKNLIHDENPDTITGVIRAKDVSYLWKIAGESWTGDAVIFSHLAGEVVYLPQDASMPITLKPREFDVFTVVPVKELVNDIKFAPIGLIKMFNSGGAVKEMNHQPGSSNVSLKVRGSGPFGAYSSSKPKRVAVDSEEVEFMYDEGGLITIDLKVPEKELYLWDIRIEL
Protocol: as §1, §2
(§4) Therefore, the active fractions from the Mono-Q column were used for the characterization of Form I. In addition, the Form I enzyme was further purified, as described in the following section.

[6] = system: Cucurbita pepo leaf alkaline alpha-galactosidase ("LIV" enzyme); assay: Substrate kinetics of Cucurbita pepo leaf alkaline alpha-galactosidase (Gaudreault and Webb); assay type: biochemical; settings: calculated for prior art "LIV" enzyme of Gaudreault and Webb
[7] = system: Cucurbita pepo leaf alkaline alpha-galactosidase ("LIV" enzyme); settings: Gaudreault and Webb; alkaline form; cited from earlier work
[8] = system: Pseudomonas fluorescens H-601 alpha-galactosidase; settings: Hashimoto et al. 1991; relative Km values; cited from earlier work
[9] = system: Cucurbita pepo leaf alkaline alpha-galactosidase; settings: 6.4 mM galactose; 7.5 mM pNPG, pH 7.5; cited from earlier work
[10] = biological target: T2, melon (Cucumis melo) fruit alkaline alpha-galactosidase Form I; assay: Inhibition of alkaline alpha-galactosidase Form I by galactose, pNPG as substrate; assay type: biochemical, muskmelon (Cucumis melo L. cv C-8); set-up: native 84 kDa, denatured 79 kDa; assayed at pH 7.5
Protocol: as §1, §2, §4

[11] = system: melon (Cucumis melo) fruit acid form alpha-galactosidase; assay: Inhibition of acid alpha-galactosidase by galactose, pNPG as substrate; assay type: biochemical, muskmelon (Cucumis melo L. cv C-8)
Protocol: as §3

[12] = biological target: T1, melon (Cucumis melo) fruit alkaline alpha-galactosidase Form II; assay: Inhibition of alkaline alpha-galactosidase Form II by galactose, pNPG as substrate; assay type: biochemical, muskmelon (Cucumis melo L. cv C-8)
Protocol: as §1
as §2, with “Active fractions were separated electrophoretically using a Mini Prep Cell (Bio-Rad Laboratories, Hercules, Calif.) for discontinuous native-PAGE with 7% polyacrylamide, according to manufacturer's instructions. Fractions (0.25 ml/fraction) were assayed at pH 7.5 with pNPG as substrate for the activity. The active fractions were pooled, concentrated by Vivaspin Concentrator (Vivascience LTD, Lincoln, England), and run in a 8% SDS-PAGE. Proteins in the SDS-PAGE were identified using Coomassie Blue staining.” left out

Vmax/Km ratio [1]: 0.01
Vmax ([1]; Lineweaver-Burk): 0.28 μmol mg^−1 protein min^−1
inhibition at 80000 µM [3]: 35%
Vmax/Km ratio [4]: 0.17
Km ([4]; Lineweaver-Burk): 4.2 mM
Vmax ([4]; Lineweaver-Burk): 0.71 μmol mg^−1 protein min^−1
Vmax/Km ratio [5]: 0.37
Km ([5]; Lineweaver-Burk): < 5 mM
Vmax ([5]; Lineweaver-Burk): 0.56 μmol mg^−1 protein min^−1
Vmax/Km ratio [6]: 0.0039
Structure (SMILES): OC[C@H]1O[C@H](OC[C@H]2O[C@H](O[C@]3(CO)O[C@H](CO)[C@@H](O)[C@@H]3O)[C@H](O)[C@@H](O)[C@@H]2O)[C@H](O)[C@@H](O)[C@H]1O [Raffinose, O-alpha-D-galactopyranosyl-(1-6)-O-alpha-D-glucopyranosyl-(1-2)-beta-D-fructofuranoside]
Km [2]: 60 mM
Km [7]: 36.4 mM
Km [8]: 17 mM

inhibition at 8000 µM ([10]; 8 mM galactose, 10 mM pNPG, alkaline Form I): 8%
inhibition type (galactose) ([10]; alkaline Form I, Lineweaver-Burk): competitive
Ki ([10]; alkaline Form I, competitive, Lineweaver-Burk): 13000 µM
inhibition of catalytic activity by galactose (in words) ([10]; alkaline alpha galactosidase of the invention, FIG. 4D-F): no inhibition of catalytic activity
reduction in activity by galactose ([11]; 8 mM galactose, 10 mM pNPG): 65%
inhibition type (galactose) ([11]; Lineweaver-Burk): competitive
Ki ([11]; competitive, Lineweaver-Burk): 60 µM
inhibition at 8000 µM ([12]; 8 mM galactose, 10 mM pNPG, read-out: reduction in activity by galactose): 70%
inhibition type (galactose) ([12]; Lineweaver-Burk): competitive
Ki ([12]; competitive, Lineweaver-Burk): 1300 µM
Structure (SMILES): OC[C@H]1O[C@H](O)[C@H](O)[C@@H](O)[C@H]1O [galactose, alpha-D-galactose]
reduction of reaction velocity by galactose [9]: 50%
